# Measured values published in PubChem BioAssay (NCI).
# “And” between values parts separate entries of the source, which are not always exact repeats. Identical values can stand only once.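 Following 48 hours of exposure in 96-well plates, responses at five concentrations were used to interpolate endpoints linearly. At the GI50, growth is halved. TGI marks complete inhibition of growth.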
# How the values were obtained:
# Assay in all cases: DTP human tumour cell line panel, 48 h
# K-562 leukemia = tested on: K-562 leukemia
# NCI-H226 lung = tested on: NCI-H226 lung
# EKVX NSCLC = tested on: EKVX NSCLC
# NCI-H522 lung = tested on: NCI-H522 lung
# T-47D breast = tested on: T-47D breast
# CAKI-1 renal = tested on: CAKI-1 renal
# RPMI-8226 leukemia = tested on: RPMI-8226 leukemia
# OVCAR-4 ovarian = tested on: OVCAR-4 ovarian
# HCT-116 colon = tested on: HCT-116 colon
Structure (SMILES),GI50 (K-562 leukemia) [µM],TGI (K-562 leukemia),GI50 (NCI-H226 lung) [µM],TGI (NCI-H226 lung),GI50 (EKVX NSCLC) [µM],TGI (EKVX NSCLC),GI50 (NCI-H522 lung) [µM],TGI (NCI-H522 lung) [µM],GI50 (T-47D breast) [µM],GI50 (CAKI-1 renal) [µM],TGI (CAKI-1 renal) [µM],GI50 (RPMI-8226 leukemia) [µM],TGI (RPMI-8226 leukemia) [µM],TGI (OVCAR-4 ovarian) [µM],TGI (HCT-116 colon),GI50 (HCT-116 colon) [µM],TGI (T-47D breast),GI50 (OVCAR-4 ovarian) [µM]
COc1ccc2c(c1)C(=O)c1c-2n(CCCn2ccnc2)c(=O)c2cc([N+](=O)[O-])ccc12,< 0.01,> 100 µM,< 0.01,0.584 µM,0.0646,> 50.9 µM,< 0.0134,3.99,< 0.01,< 0.01,0.366,0.0653,0.515,> 100,–,–,–,–
CC(SC(=S)N1CCOCC1)c1cc2oc(=O)n(C)c2cc1Cl (stereo not given),–,> 100 µM,–,–,–,> 100 µM,–,–,–,–,> 100,–,> 100,> 100,> 100 µM,–,–,–
O=C(CCc1cc(-c2ccccc2)nc(=S)[nH]1)N(Cc1ccccc1)Cc1ccccc1,–,> 100 µM,–,> 100 µM,–,> 100 µM,–,> 100,–,–,> 100,–,> 100,> 100,> 100 µM,–,–,–
COc1ccc2c(c1)[n+](=O)c(C(=O)C/C(=N/OCCCc1ccccc1)C(=O)NC13CC4CC(CC(C4)C1)C3)c(C)n2[O-],–,> 100 µM,–,> 100 µM,–,> 100 µM,–,> 100,–,–,> 100,–,> 100,> 100,> 100 µM,–,–,–
Nc1cccc(S(=O)(=O)NCC(=O)O)c1,–,> 100 µM,–,> 100 µM,–,> 100 µM,–,> 100,–,–,> 100,–,> 100,> 100,> 100 µM,–,–,–
CCCn1c(=S)sc2c1nc(C)n1c(Nc3ccccc3)nnc21,6.15,37.7 µM,4.98,23.6 µM,–,–,3.57,15.5,1.63,6.05,62.4,4.22,39.3,> 100,17.7 µM,4.43,8.25 µM,3.46
CCc1ccccc1NC(=O)C1=C(C)NC(C)=C(C(=O)Nc2ccccc2CC)C1c1ccc2c(c1)OCO2,–,> 100 µM,–,81.4 µM,–,> 100 µM,–,> 100,–,–,88.5,–,49.5,92,–,–,–,–
NC1=NC(c2ccccc2)CC(c2cc(Cl)ccc2O)=N1 (stereo not given),–,40.8 µM,–,37.8 µM,–,29.5 µM,–,29,–,–,30.1,–,41,35.8,27.6 µM,–,–,–
Cc1ccc(C(=O)N(CCCN)C(c2oc3cc(Cl)ccc3c(=O)c2Cc2ccccc2)C(C)C)cc1 (stereo not given),< 0.01,1.41 µM,1.47,3.23 µM,–,–,< 0.01,< 0.01,< 0.01,0.0492,1.94,< 0.01,1.46,2.47,–,–,2.02 µM,0.899
O=C(CC1(O)C(=O)Nc2c(Cl)ccc(Cl)c21)c1ccc(F)cc1 (stereo not given),–,> 100 µM,–,79.6 µM,–,> 100 µM,–,> 100,–,–,> 100,–,47.9,97.9,–,–,–,–
O=C(O)CCSC(=O)Nc1ccc([N+](=O)[O-])cc1,–,> 100 µM,–,–,–,> 100 µM,–,–,–,–,> 100,–,> 100,> 100,> 100 µM,–,–,–
COc1cc[nH]c1/C=C1\C(=O)Nc2ccc(F)c(C#CC3(O)CCNCC3)c21,0.55,2.51 µM,0.138,0.92 µM,–,–,0.22,0.715,0.819,0.0181,0.472,0.372,1.23,1.62,2.76 µM,0.0125,2.59 µM,0.346
O=C1C(Cl)=C(NCCN2CCOCC2)C(=O)c2ncccc21,1.67,3.67 µM and 4.61 µM,–,5.14 µM and 3.74 µM,–,3.41 µM and 3.6 µM,–,–,1.83,1.92,3.72,2.72,9.23,3.88,3.51 µM and 3.58 µM,–,5.74 µM and 4.49 µM,1.85
COc1ccc2nc3c(C(=O)NCCN(C)C)cccc3nc2c1,–,29.5 µM,–,38.6 µM,–,15.7 µM,–,–,–,–,> 100,–,–,29.6,28.1 µM,–,–,–
COc1cc(C(=O)CBr)c(OC)cc1C,–,> 100 µM,–,> 100 µM,–,> 100 µM,–,> 100,–,–,> 100,–,> 100,–,> 100 µM,–,> 100 µM,–
O=C(N/C(=C\c1cccc([N+](=O)[O-])c1)c1nc2ccc([N+](=O)[O-])cc2[nH]1)c1ccccc1,–,> 100 µM,–,–,–,> 100 µM,–,52.9,–,–,> 100,–,–,66.1,–,–,–,–
O=C(Nc1ccc(-c2nc(N3CCOCC3)c3cccn3n2)cc1)Nc1cccnc1,0.195,> 100 µM,0.141,1.1 µM,0.216,0.975 µM,0.125,> 100,–,0.185,3.85,0.138,1.36,1.27,27.7 µM,0.041,–,0.118
CCC[CH2][Sn]1([CH2]CCC)[O]C(=O)CN=Cc2c(ccc3ccccc23)[O]1,0.245,1.09 µM,–,–,0.552,1.86 µM,0.0605,0.198,–,0.0629,0.593,0.154,0.529,2.19,2.32 µM,1.04,–,1
CCN(CC)C(c1ccc(N(C)C)cc1)C(c1ccc(N(C)C)cc1)N(CC)CC (stereo not given),–,> 73 µM,–,> 73 µM,–,> 73 µM,–,> 7.3,–,–,> 73,–,> 73,> 73,> 73 µM,–,–,–
CCOC(=O)/C(C#N)=C/c1[nH]c(C(=O)OCc2ccccc2)c(C)c1C,–,> 100 µM,–,–,–,> 100 µM,–,> 100,–,–,> 100,–,> 100,> 100,–,–,–,–
NC(=O)NS(=O)(=O)c1ccc(N2N=C(C(F)(F)F)CC2c2cc(C(F)(F)F)cc(C(F)(F)F)c2)cc1 (stereo not given),4.98,> 100 µM,7.21,21.8 µM,2.82,11.3 µM,–,–,3.73,5,19.5,1.38,3.74,12.8,14.7 µM,3.07,17.2 µM,2.9
